# Experimental data published in paper PMC9025810, “Interaction of Antifungal Drugs with CYP3A- and OATP1B-Mediated Venetoclax Elimination” (Pharmaceutics, 2022).
# Legend:
# human CYP3A4 = target: T1, human CYP3A4 (Homo sapiens, UniProt P08684); experiment: Venetoclax metabolism by human recombinant CYP3A4 supersomes; type: in vitro ADME; conditions: 10 µM venetoclax, 40 nM CYP3A4 supersomes, 2 h
# T1 construct: purchased Corning 456207
# Protocol: The ability of human CYP3A4 to metabolize venetoclax was assessed using human CYP3A4 supersomes using standard procedures. Reactions were performed in a volume of 100 µL. […] The mixture was preincubated for 5 min at 37 °C before initiating the reaction by the addition of the NADPH regenerating system and incubating at 37 °C with continuous shaking (400 rpm). At 0 h and 2 h, a 20 µL aliquot was mixed with 20 µL methanol to terminate the reaction. The mixture was then vortexed and stored at −80 °C until analysis. Venetoclax was quantified using a validated UHPLC-MS/MS analytical method.
# [1] = plasma; cited from earlier work
# [2] = cited from earlier work
# OATP1B1 = target: T2, OATP1B1 (Homo sapiens, UniProt Q9Y6L6); experiment: Radioactive uptake and membrane/intracellular fractionation in cells overexpressing OATP1B1 or vector; type: cell-based; set-up: expressed in transfected cells
# T2 sequence (Q9Y6L6 1-691): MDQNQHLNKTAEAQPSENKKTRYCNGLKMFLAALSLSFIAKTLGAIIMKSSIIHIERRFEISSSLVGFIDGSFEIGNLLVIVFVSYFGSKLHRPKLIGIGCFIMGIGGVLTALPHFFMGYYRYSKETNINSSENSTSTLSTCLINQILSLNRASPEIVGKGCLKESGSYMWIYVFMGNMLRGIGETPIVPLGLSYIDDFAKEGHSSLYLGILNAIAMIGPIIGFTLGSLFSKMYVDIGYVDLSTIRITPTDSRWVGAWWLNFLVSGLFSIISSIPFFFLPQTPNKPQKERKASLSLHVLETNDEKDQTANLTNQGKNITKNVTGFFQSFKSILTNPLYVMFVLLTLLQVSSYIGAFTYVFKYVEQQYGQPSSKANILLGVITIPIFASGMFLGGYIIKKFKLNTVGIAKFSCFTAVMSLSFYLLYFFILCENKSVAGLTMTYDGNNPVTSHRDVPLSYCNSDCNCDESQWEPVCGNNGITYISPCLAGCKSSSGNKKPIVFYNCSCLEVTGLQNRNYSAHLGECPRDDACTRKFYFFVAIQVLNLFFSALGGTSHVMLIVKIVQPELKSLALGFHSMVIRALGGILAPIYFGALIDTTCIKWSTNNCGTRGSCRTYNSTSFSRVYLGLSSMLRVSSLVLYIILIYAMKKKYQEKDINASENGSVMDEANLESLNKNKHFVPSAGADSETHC
# Protocol: For experiments seeking to directly determine if venetoclax is an OATP1B1 substrate, cells overexpressing OATP1B1 or VC were seeded in six-well plates in phenol red-free DMEM containing 10% FBS and doxycycline (1 µg/mL) for 24 h. […] Cells were then immediately lysed with 1 mL of 1 N NaOH for 4 h on an orbital shaker at room temperature to measure total radioactivity. Alternatively, cells were trypsinized with 200 µL of TrypLE (Thermo Fisher Scientific, Waltham, MA, USA) for 3–5 min, rinsed with 800 µL of ice-cold washing buffer, and ProteoExtract Native Membrane Protein Extraction Kits (EMD Millipore, Burlington, MA, USA) were used to separate membrane and intracellular fractions. Dissociated cells were then transferred to 1.5-mL Eppendorf tubes. For measurement of total radioactivity, cells were neutralized with 500 µL of 2 M HCl after 4 h. For measurement of total radioactivity in the membrane or intracellular fraction, cells were isolated following the manufacturer’s protocol, as we have reported previously; this procedure is based on a differential extraction procedure under non-denaturing conditions.
# T1 sequence (P08684 whole entry): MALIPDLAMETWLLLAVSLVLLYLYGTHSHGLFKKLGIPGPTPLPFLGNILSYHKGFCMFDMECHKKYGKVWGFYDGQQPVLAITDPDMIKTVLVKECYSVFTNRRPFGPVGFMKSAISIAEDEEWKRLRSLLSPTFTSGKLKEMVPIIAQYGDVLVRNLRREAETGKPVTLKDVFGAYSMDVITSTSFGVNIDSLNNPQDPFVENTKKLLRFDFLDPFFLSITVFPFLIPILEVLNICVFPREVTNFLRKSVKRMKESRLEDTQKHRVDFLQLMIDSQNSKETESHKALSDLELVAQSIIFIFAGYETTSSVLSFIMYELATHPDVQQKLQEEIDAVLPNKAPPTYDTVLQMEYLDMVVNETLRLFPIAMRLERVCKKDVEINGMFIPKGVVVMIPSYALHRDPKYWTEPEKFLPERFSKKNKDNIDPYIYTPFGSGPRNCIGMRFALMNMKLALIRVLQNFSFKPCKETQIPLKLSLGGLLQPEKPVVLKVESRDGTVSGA
smiles,measurement,setting,value
CC1(C)CCC(CN2CCN(c3ccc(C(=O)NS(=O)(=O)c4ccc(NCC5CCOCC5)c([N+](=O)[O-])c4)c(Oc4cnc5[nH]ccc5c4)c3)CC2)=C(c2ccc(Cl)cc2)C1 [Venetoclax],Amount of venetoclax in the reaction in the presence of ketoconazole,human CYP3A4; 10 µM ketoconazole,nearly unchanged
same,Reduction of the amount of venetoclax in the reaction,human CYP3A4; vehicle (DMSO),40%
same,Protein-bound in plasma,[1],> 99%
same,Variation in apparent oral clearance,"[2]; at approved doses, patients",~15 fold
same,DDI between venetoclax and ketoconazole (increase in venetoclax exposure),[2]; humans,~ 6 fold
same,Increase in systemic exposure to venetoclax with a single dose of rifampin,[2]; humans,2 fold
same,Uptake in the intracellular fraction with overexpression of OATP1B1 versus vector,"OATP1B1; 0.2 µM EβG or 1 µM venetoclax, 15 min",significant increases
same,Detectable compound associated with the membrane fraction,OATP1B1; after correction for the intracellular fraction,> 96%
same,Venetoclax remaining unbound (membrane-binding experiment),"OATP1B1; in vitro, cells",< 3%
same,Radioactivity in the membrane fraction relative to the probe substrate EβG,"OATP1B1; membrane fraction, 1 µM venetoclax vs 0.2 µM EβG",> 500 fold
same,Detected total radioactivity relative to the probe substrate EβG,"OATP1B1; whole cell lysate, cells expressing OATP1B1 or vector, 15 min",> 10 fold
